#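 Cultured in 96-well plates, cells were exposed to test compound for 48 hours across five concentrations. GI50 = concentration required for 50% inhibition of growth. The concentration for full growth arrest is given as TGI.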
# Assays:
# Experiment in all cases: inhibition of tumour cell growth, NCI panel, 48 h
# PC-3 prostate = tested on: PC-3 prostate
# UACC-257 melanoma = tested on: UACC-257 melanoma
# SR leukemia = tested on: SR leukemia
# COLO 205 colon = tested on: COLO 205 colon
# CCRF-CEM leukemia = tested on: CCRF-CEM leukemia
# T-47D breast = tested on: T-47D breast
# A498 renal = tested on: A498 renal
# HL-60(TB) leukemia = tested on: HL-60(TB) leukemia
# RXF 393 renal = tested on: RXF 393 renal
# HCC-2998 colon = tested on: HCC-2998 colon
# HCT-15 colon = tested on: HCT-15 colon
# SNB-75 CNS = tested on: SNB-75 CNS
# A549 NSCLC = tested on: A549 NSCLC
# OVCAR-8 ovarian = tested on: OVCAR-8 ovarian
# MOLT-4 leukemia = tested on: MOLT-4 leukemia
# UO-31 renal = tested on: UO-31 renal
# 786-0 renal = tested on: 786-0 renal
# NCI-H226 lung = tested on: NCI-H226 lung
# NCI-H23 lung = tested on: NCI-H23 lung
# ACHN renal = tested on: ACHN renal
# TK-10 renal = tested on: TK-10 renal
# IGROV1 ovarian = tested on: IGROV1 ovarian
# OVCAR-3 ovarian = tested on: OVCAR-3 ovarian
# UACC-62 melanoma = tested on: UACC-62 melanoma
# OVCAR-4 ovarian = tested on: OVCAR-4 ovarian
# OVCAR-5 ovarian = tested on: OVCAR-5 ovarian
# DU-145 prostate = tested on: DU-145 prostate
# MDA-MB-435 = tested on: MDA-MB-435
# HT29 colon = tested on: HT29 colon
# M14 melanoma = tested on: M14 melanoma
# HOP-92 NSCLC = tested on: HOP-92 NSCLC
# CAKI-1 renal = tested on: CAKI-1 renal
# SW-620 colon = tested on: SW-620 colon
# SK-MEL-28 melanoma = tested on: SK-MEL-28 melanoma
# HS 578T breast = tested on: HS 578T breast
# U251 CNS = tested on: U251 CNS
# MCF7 breast = tested on: MCF7 breast
# SF-539 CNS = tested on: SF-539 CNS
# SK-OV-3 ovarian = tested on: SK-OV-3 ovarian
# K-562 leukemia = tested on: K-562 leukemia
# SNB-19 CNS = tested on: SNB-19 CNS
# RPMI-8226 leukemia = tested on: RPMI-8226 leukemia
# NCI/ADR-RES ovarian = tested on: NCI/ADR-RES ovarian
# NCI-H460 lung = tested on: NCI-H460 lung
# HCT-116 colon = tested on: HCT-116 colon
# SK-MEL-5 melanoma = tested on: SK-MEL-5 melanoma
# BT-549 breast = tested on: BT-549 breast
# MALME-3M melanoma = tested on: MALME-3M melanoma
# EKVX NSCLC = tested on: EKVX NSCLC
# LOX IMVI melanoma = tested on: LOX IMVI melanoma
# HOP-62 NSCLC = tested on: HOP-62 NSCLC
# SF-268 CNS = tested on: SF-268 CNS
# NCI-H522 lung = tested on: NCI-H522 lung
# SF-295 CNS = tested on: SF-295 CNS
# SK-MEL-2 melanoma = tested on: SK-MEL-2 melanoma
# SN12C renal = tested on: SN12C renal
# KM12 colon = tested on: KM12 colon
# MDA-MB-231 breast = tested on: MDA-MB-231 breast
structure (smiles),measurement,setting,value
CCOP(=O)(OCC)OC[C@]12CCC(C)(C)C[C@H]1C1=CC[C@@H]3[C@@]4(C)C/C(=C\c5cccnc5)[C@H](OP(=O)(OCC)OCC)C(C)(C)[C@@H]4CC[C@@]3(C)[C@]1(C)CC2,GI50,PC-3 prostate,0.727 µM
same,TGI,PC-3 prostate,2.77 µM
same,GI50,UACC-257 melanoma,1.64 µM
same,TGI,UACC-257 melanoma,4.06 µM
same,GI50,SR leukemia,1.02 µM
same,TGI,SR leukemia,2.78 µM
same,GI50,COLO 205 colon,1.57 µM
same,TGI,COLO 205 colon,3.32 µM
same,GI50,CCRF-CEM leukemia,1.77 µM
same,TGI,CCRF-CEM leukemia,4 µM
same,GI50,T-47D breast,1.58 µM
same,TGI,T-47D breast,8.35 µM
same,GI50,A498 renal,1.64 µM
same,TGI,A498 renal,4.44 µM
same,GI50,HL-60(TB) leukemia,0.581 µM
same,TGI,HL-60(TB) leukemia,2.3 µM
same,GI50,RXF 393 renal,1.19 µM
same,TGI,RXF 393 renal,2.49 µM
same,GI50,HCC-2998 colon,1.59 µM
same,TGI,HCC-2998 colon,3.03 µM
same,GI50,HCT-15 colon,1.56 µM
same,TGI,HCT-15 colon,3.43 µM
same,GI50,SNB-75 CNS,1.6 µM
same,TGI,SNB-75 CNS,3.91 µM
same,GI50,A549 NSCLC,2 µM
same,TGI,A549 NSCLC,5.59 µM
same,GI50,OVCAR-8 ovarian,2.29 µM
same,TGI,OVCAR-8 ovarian,6.52 µM
same,GI50,MOLT-4 leukemia,0.715 µM
same,TGI,MOLT-4 leukemia,2.42 µM
same,GI50,UO-31 renal,1.92 µM
same,TGI,UO-31 renal,6.04 µM
same,GI50,786-0 renal,1.86 µM
same,TGI,786-0 renal,3.89 µM
same,GI50,NCI-H226 lung,1.44 µM
same,TGI,NCI-H226 lung,3.13 µM
same,GI50,NCI-H23 lung,1.61 µM
same,TGI,NCI-H23 lung,3.29 µM
same,GI50,ACHN renal,2.3 µM
same,TGI,ACHN renal,7.14 µM
same,GI50,TK-10 renal,2.68 µM
same,TGI,TK-10 renal,6.32 µM
same,GI50,IGROV1 ovarian,2.21 µM
same,TGI,IGROV1 ovarian,5.61 µM
same,GI50,OVCAR-3 ovarian,1.68 µM
same,TGI,OVCAR-3 ovarian,3.39 µM
same,GI50,UACC-62 melanoma,1.28 µM
same,TGI,UACC-62 melanoma,2.88 µM
same,GI50,OVCAR-4 ovarian,1.7 µM
same,TGI,OVCAR-4 ovarian,4.37 µM
same,GI50,OVCAR-5 ovarian,1.79 µM
same,TGI,OVCAR-5 ovarian,3.34 µM
same,GI50,DU-145 prostate,1.75 µM
same,TGI,DU-145 prostate,3.3 µM
same,GI50,MDA-MB-435,1.6 µM
same,TGI,MDA-MB-435,3.23 µM
same,GI50,HT29 colon,1.52 µM
same,TGI,HT29 colon,3.16 µM
same,GI50,M14 melanoma,1.8 µM
same,TGI,M14 melanoma,3.7 µM
same,GI50,HOP-92 NSCLC,1.22 µM
same,TGI,HOP-92 NSCLC,2.9 µM
same,GI50,CAKI-1 renal,1.09 µM
same,TGI,CAKI-1 renal,2.65 µM
same,GI50,SW-620 colon,1.79 µM
same,TGI,SW-620 colon,3.61 µM
same,GI50,SK-MEL-28 melanoma,1.71 µM
same,TGI,SK-MEL-28 melanoma,3.27 µM
same,GI50,HS 578T breast,2.06 µM
same,TGI,HS 578T breast,5.38 µM
same,GI50,U251 CNS,1.61 µM
same,TGI,U251 CNS,3.2 µM
same,GI50,MCF7 breast,1.37 µM
same,TGI,MCF7 breast,3.04 µM
same,GI50,SF-539 CNS,1.73 µM
same,TGI,SF-539 CNS,3.2 µM
same,GI50,SK-OV-3 ovarian,2.1 µM
same,TGI,SK-OV-3 ovarian,5.28 µM
same,GI50,K-562 leukemia,1.18 µM
same,TGI,K-562 leukemia,3.53 µM
same,GI50,SNB-19 CNS,1.66 µM
same,TGI,SNB-19 CNS,3.14 µM
same,GI50,RPMI-8226 leukemia,0.939 µM
same,TGI,RPMI-8226 leukemia,3.33 µM
same,GI50,NCI/ADR-RES ovarian,2.25 µM
same,TGI,NCI/ADR-RES ovarian,6.05 µM
same,GI50,NCI-H460 lung,1.78 µM
same,TGI,NCI-H460 lung,3.55 µM
same,GI50,HCT-116 colon,1.25 µM
same,TGI,HCT-116 colon,2.58 µM
same,GI50,SK-MEL-5 melanoma,1.42 µM
same,TGI,SK-MEL-5 melanoma,2.73 µM
O=C(Nc1ccc(Cl)c(C(F)(F)F)c1)Nc1ccc2c(ccn2C(=O)c2cccc(F)c2)c1,GI50,PC-3 prostate,2.92 µM
same,TGI,PC-3 prostate,33.5 µM
same,GI50,BT-549 breast,2.61 µM
same,TGI,BT-549 breast,8.98 µM
same,GI50,MALME-3M melanoma,1.92 µM
same,TGI,MALME-3M melanoma,5.87 µM
same,GI50,UACC-257 melanoma,2.44 µM
same,TGI,UACC-257 melanoma,7.74 µM
same,GI50,SR leukemia,2.13 µM
same,TGI,SR leukemia,9.12 µM
same,GI50,COLO 205 colon,2.25 µM
same,TGI,COLO 205 colon,5.57 µM
same,GI50,CCRF-CEM leukemia,3.78 µM
same,TGI,CCRF-CEM leukemia,> 100 µM
same,GI50,T-47D breast,2.53 µM
same,TGI,T-47D breast,9.11 µM
same,GI50,A498 renal,2.67 µM
same,TGI,A498 renal,9.86 µM
same,GI50,HL-60(TB) leukemia,2.33 µM
same,TGI,HL-60(TB) leukemia,7.82 µM
same,GI50,RXF 393 renal,1.74 µM
same,TGI,RXF 393 renal,4.08 µM
same,GI50,HCC-2998 colon,2.49 µM
same,TGI,HCC-2998 colon,9.04 µM
same,GI50,HCT-15 colon,2.37 µM
same,TGI,HCT-15 colon,9.7 µM
same,GI50,SNB-75 CNS,1.9 µM
same,TGI,SNB-75 CNS,9.11 µM
same,GI50,A549 NSCLC,2.9 µM
same,TGI,A549 NSCLC,22.7 µM
same,GI50,OVCAR-8 ovarian,3.15 µM
same,TGI,OVCAR-8 ovarian,17.9 µM
same,GI50,EKVX NSCLC,2.2 µM
same,TGI,EKVX NSCLC,7.8 µM
same,GI50,MOLT-4 leukemia,3.4 µM
same,TGI,MOLT-4 leukemia,> 100 µM
same,GI50,UO-31 renal,1.7 µM
same,TGI,UO-31 renal,4.42 µM
same,GI50,786-0 renal,2.63 µM
same,TGI,786-0 renal,11.1 µM
same,GI50,NCI-H226 lung,2.46 µM
same,TGI,NCI-H226 lung,7.5 µM
same,GI50,LOX IMVI melanoma,1.43 µM
same,TGI,LOX IMVI melanoma,3.28 µM
same,GI50,ACHN renal,2.56 µM
same,TGI,ACHN renal,7.47 µM
same,GI50,TK-10 renal,2.91 µM
same,TGI,TK-10 renal,36.5 µM
same,GI50,IGROV1 ovarian,2.75 µM
same,TGI,IGROV1 ovarian,10.6 µM
same,GI50,OVCAR-3 ovarian,2.16 µM
same,TGI,OVCAR-3 ovarian,6.2 µM
same,GI50,UACC-62 melanoma,2.53 µM
same,TGI,UACC-62 melanoma,15.3 µM
same,GI50,OVCAR-4 ovarian,2.98 µM
same,TGI,OVCAR-4 ovarian,> 100 µM
same,GI50,OVCAR-5 ovarian,4.86 µM
same,TGI,OVCAR-5 ovarian,38.9 µM
same,GI50,DU-145 prostate,3.5 µM
same,TGI,DU-145 prostate,48.8 µM
same,GI50,MDA-MB-435,2.84 µM
same,TGI,MDA-MB-435,14.1 µM
same,GI50,HT29 colon,3.16 µM
same,TGI,HT29 colon,50.8 µM
same,GI50,M14 melanoma,3.22 µM
same,TGI,M14 melanoma,16.8 µM
same,GI50,HOP-92 NSCLC,2.07 µM
same,TGI,HOP-92 NSCLC,5.77 µM
same,GI50,CAKI-1 renal,2.16 µM
same,TGI,CAKI-1 renal,9.07 µM
same,GI50,HOP-62 NSCLC,2.45 µM
same,TGI,HOP-62 NSCLC,7.81 µM
same,GI50,SW-620 colon,3.5 µM
same,TGI,SW-620 colon,35.8 µM
same,GI50,SF-268 CNS,3.43 µM
same,TGI,SF-268 CNS,> 100 µM
same,GI50,SK-MEL-28 melanoma,3.37 µM
same,TGI,SK-MEL-28 melanoma,19.6 µM
same,GI50,HS 578T breast,2.8 µM
same,TGI,HS 578T breast,8.55 µM
same,GI50,U251 CNS,3.01 µM
same,TGI,U251 CNS,11.4 µM
same,GI50,NCI-H522 lung,2.42 µM
same,TGI,NCI-H522 lung,7.67 µM
same,GI50,MCF7 breast,2.12 µM
same,TGI,MCF7 breast,7.66 µM
same,GI50,SF-539 CNS,2.71 µM
same,TGI,SF-539 CNS,8.26 µM
same,GI50,SK-OV-3 ovarian,2.79 µM
same,TGI,SK-OV-3 ovarian,8.99 µM
same,GI50,K-562 leukemia,3.15 µM
same,TGI,K-562 leukemia,16.4 µM
same,GI50,SNB-19 CNS,3.18 µM
same,TGI,SNB-19 CNS,14.1 µM
same,GI50,SF-295 CNS,1.93 µM
same,TGI,SF-295 CNS,4.76 µM
same,GI50,SK-MEL-2 melanoma,2.36 µM
same,TGI,SK-MEL-2 melanoma,6.89 µM
same,GI50,RPMI-8226 leukemia,2.78 µM
same,TGI,RPMI-8226 leukemia,10.9 µM
same,GI50,NCI/ADR-RES ovarian,2.5 µM
same,TGI,NCI/ADR-RES ovarian,7.25 µM
same,GI50,SN12C renal,3.1 µM
same,TGI,SN12C renal,15.8 µM
same,GI50,NCI-H460 lung,2.8 µM
same,TGI,NCI-H460 lung,10 µM
same,GI50,KM12 colon,2.83 µM
same,TGI,KM12 colon,12 µM
same,GI50,HCT-116 colon,3 µM
same,TGI,HCT-116 colon,10.6 µM
same,GI50,MDA-MB-231 breast,2.91 µM
same,TGI,MDA-MB-231 breast,11 µM
same,GI50,SK-MEL-5 melanoma,2.4 µM
same,TGI,SK-MEL-5 melanoma,6.64 µM
